Assay results reported in US20250129103A1, “METHODS FOR TREATMENT OF CANCER” (Frontier Medicines Corporation, priority 2022, published 2025).
Converted amounts (≈) assume the structure as drawn.

How the values were obtained:
[1] = Determination of kinetic solubility (pH 7.4); format: physicochemical; conditions: for solubility kinetic at 2 h: phosphate buffer, pH 7.4, aqueous buffer, kinetic from dmso stock, 50 mM phosphate buffer pH 7.4, read-out: Ksol, pH 7.4
Method in brief: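 Solubility taken from filtrate peak areas on a calibration curve (HPLC-UV, LC-MS/MS). Before filtration and centrifugation, compound was shaken for 2 h at room temperature in pH 7.4 50 mM phosphate buffer.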

[2] = biological target: KRAS G12C (GMPPNP-loaded) and cRAF (Ras-binding domain) interaction (Homo sapiens (Human), UniProt P01116, C118S/C51S/C80L/G12C); test: Inhibition of KRAS G12C and cRAF binding (AlphaScreen); conditions: KRAS G12C loaded with GMPPNP, cRaf RBD, 2 hours preincubation; read-out: Raf-1 RBD K-Ras IC50
Method in brief: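 AlphaScreen readout (680 nm excitation, 570 nm emission) of RBD binding after a 60-90 min bead step at room temperature. This step follows 2 h compound exposure of GMPPNP-preloaded KRAS G12C in Hepes pH 7.4 buffer with MgCl2 and 10 μM GMPPNP.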

[3] = Determination of logD (1-octanol / phosphate buffer pH 7.4); format: physicochemical; conditions: 1-octanol/phosphate buffer, pH 7.4, pH 7.4, 1-octanol/phosphate buffer; read-out: Log D, pH 7.4
Method in brief: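 Each phase analysed by LCMS after 1 h shaking at 800 rpm and centrifugation, room temperature. Phases were mutually saturated 1-octanol and 100 mM phosphate buffer at pH 7.4. LogD derived from the phase concentrations.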

[4] = biological target: KRAS G12C (GMPPNP-loaded) and PI3Ka (Ras-binding domain) interaction (Homo sapiens (Human), UniProt P01116, C118S/C51S/C80L/G12C); test: Inhibition of KRAS G12C and PI3Ka binding (AlphaScreen); conditions: KRAS G12C loaded with GMPPNP, PI3Ka RBD, 2 hours preincubation; read-out: PI3K RBD K-Ras IC50
Method in brief: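 Biotin-AviTag Cys-light KRAS G12C (aa 1-169, C51S/C80L/C118S), GMPPNP-loaded, 1.5 nM, preincubated 2 h with compound, then His-tagged PI3Ka RBD (aa 157-300, 100 nM) plus AlphaScreen beads added for 60-90 min, RT. Buffer Hepes pH 7.4, 10 μM GMPPNP, 2% DMSO; 10-point 1:3 from 50 μM; 4-parameter IC50.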

Chain of KRAS G12C (GMPPNP-loaded) and PI3Ka (Ras-binding domain) interaction (P01116 other isoform, or with tags, fused parts or gaps G12C/C51S/C80L/C118S): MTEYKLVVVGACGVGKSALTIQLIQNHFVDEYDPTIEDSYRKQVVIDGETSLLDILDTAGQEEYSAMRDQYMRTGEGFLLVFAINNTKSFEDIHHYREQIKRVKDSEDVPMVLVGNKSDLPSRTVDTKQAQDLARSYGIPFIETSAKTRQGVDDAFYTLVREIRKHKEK
Chain of KRAS G12C (GMPPNP-loaded) and cRAF (Ras-binding domain) interaction (P01116 other isoform, or with tags, fused parts or gaps G12C/C51S/C80L/C118S): as above

## N#CC[C@H]1CN(c2nc(OC[C@@]34CCCN3C[C@H](F)C4)nc3c(F)c(-c4cccc5cccc(Cl)c45)ncc23)CCN1C(=O)/C=C/CN1CC[C@H](F)C1 [Compound 95, 2-((S)-4-(7-(8-chloronaphthalen-1-yl)-8-fluoro-2-(((2R,7aS)-2-fluorohexahydro-1H-pyrrolizin-7a-yl)methoxy)pyrido[4,3-d]pyrimidin-4-yl)-1-((E)-4-((S)-3-fluoropyrrolidin-1-yl)but-2-enoyl)piperazin-2-yl)acetonitrile]
[1]
  solubility kinetic at 2 h: 73.6 µg/mL (≈ 98.7 µM)
[2]
  IC50: < 10 nM
[3]
  logD: 1.63
[4]
  IC50: < 10 nM

## Cc1noc(/C=C/C(=O)N2CCN(c3nc(OCC45CCCN4CCC5)nc4c3CCN(c3cccc5cccc(Cl)c35)C4)C[C@@H]2CC#N)n1 [Example 1, (S,E)-2-(4-(7-(8-chloronaphthalen-1-yl)-2-((hexahydro-1H-pyrrolizin-7a-yl)methoxy)-5,6,7,8-tetrahydropyrido[3,4-d]pyrimidin-4-yl)-1-(3-(3-methyl-1,2,4-oxadiazol-5-yl)acryloyl)piperazin-2-yl)acetonitrile]
[1]; 50 mM phosphate buffer pH 7.4
  Ksol, pH 7.4 (ug/mL): 111.20 ug/mL
[2]
  IC50: 10 to 100 nM
[3]
  logD: 2.9
[4]
  IC50: < 10 nM

## CC(C)c1noc(/C=C/C(=O)N2CCN(c3nc(OC[C@]45CCCN4C[C@H](F)C5)nc4c3CCN(c3cccc5ccc(F)c(Cl)c35)C4)C[C@@H]2CC#N)n1 [Compound 131]
[1]
  solubility kinetic at 2 h: 0.01 µg/mL (≈ 0.0132 µM)
[2]
  IC50: 10 to 100 nM
[3]
  logD: 4.96
[4]
  IC50: 10 to 100 nM

## N#CC[C@H]1CN(c2nc(OC[C@@]34CCCN3C[C@H](F)C4)nc3c(F)c(-c4cccc5ccc(F)c(Cl)c45)ncc23)CCN1C(=O)/C=C/CN1CCOCC1 [Compound 53]
[1]
  solubility kinetic at 2 h: 111 µg/mL (≈ 146 µM)
[2]
  IC50: < 10 nM
[3]
  logD: 2.82
[4]
  IC50: < 10 nM

## CN1CC[C@@H]1/C=C/C(=O)N1CCN(c2nc(OC[C@@]34CCCN3C[C@H](F)C4)nc3c(F)c(-c4cccc(Cl)c4C4CC4)ncc23)C[C@@H]1CC#N [Compound 305]
[1]
  solubility kinetic at 2 h: 130 µg/mL (≈ 186 µM)
[2]
  IC50: 10 to 100 nM
[3]
  logD: 2.87
[4]
  IC50: 10 to 100 nM

## CC(F)(F)c1noc(/C=C/C(=O)N2CCN(c3nc(OC[C@@]45CCCN4C[C@H](F)C5)nc4c(F)c(-c5cccc6cccc(Cl)c56)ncc34)C[C@@H]2CC#N)n1 [Example 14, 2-((S)-4-(7-(8-chloronaphthalen-1-yl)-8-fluoro-2-(((2R,7aS)-2-fluorotetrahydro-1H-pyrrolizin-7a(5H)-yl)methoxy)pyrido[4,3-d]pyrimidin-4-yl)-1-((E)-3-(3-(1,1-difluoroethyl)-1,2,4-oxadiazol-5-yl)acryloyl)piperazin-2-yl)acetonitrile]
[1]
  solubility kinetic at 2 h: 0.04 µg/mL (≈ 0.0515 µM)
[2]
  IC50: < 10 nM
[3]
  logD: 4.49
[4]
  IC50: < 10 nM

## CO[C@H]1CCN(C/C=C/C(=O)N2CCN(c3nc(OC[C@@]45CCCN4C[C@H](F)C5)nc4c(F)c(-c5cccc6cccc(Cl)c56)ncc34)C[C@@H]2CC#N)C1 [Compound 190]
[1]
  solubility kinetic at 2 h: 94.7 µg/mL (≈ 125 µM)
[2]
  IC50: < 10 nM
[3]
  logD: 2.86
[4]
  IC50: < 10 nM

## C#Cc1c(F)ccc2cccc(-c3ncc4c(N5CCN(C(=O)/C=C/CN6CCOCC6)[C@@H](CC#N)C5)nc(OC[C@@]56CCCN5C[C@H](F)C6)nc4c3F)c12 [Compound 255]
[1]
  solubility kinetic at 2 h: 118 µg/mL (≈ 158 µM)
[2]
  IC50: < 10 nM
[3]
  logD: 2.81
[4]
  IC50: < 10 nM

## Cc1nccc(/C=C/C(=O)N2CCN(c3nc(OC[C@@]45CCCN4C[C@H](F)C5)nc4c(F)c(-c5cccc6ccc(F)c(Cl)c56)ncc34)C[C@@H]2CC#N)n1 [Compound 147]
[1]
  solubility kinetic at 2 h: 4.93 µg/mL (≈ 6.54 µM)
[2]
  IC50: < 10 nM
[3]
  logD: 3.64
[4]
  IC50: < 10 nM

## N#CC[C@H]1CN(c2nc(OC[C@@]34CCCN3C[C@H](F)C4)nc3c(F)c(-c4cccc5ccc(F)c(Cl)c45)ncc23)CCN1C(=O)/C=C/CN1[C@@H]2CC[C@H]1COC2 [Example 79, 2-((S)-1-((E)-4-((1R,5S)-3-oxa-8-azabicyclo[3.2.1]octan-8-yl)but-2-enoyl)-4-(7-(8-chloro-7-fluoronaphthalen-1-yl)-8-fluoro-2-(((2R,7aS)-2-fluorotetrahydro-1H-pyrrolizin-7a(5H)-yl)methoxy)pyrido[4,3-d]pyrimidin-4-yl)piperazin-2-yl)acetonitrile]
[1]
  solubility kinetic at 2 h: 155 µg/mL (≈ 197 µM)
[2]
  IC50: < 10 nM
[3]
  logD: 3.53
[4]
  IC50: < 10 nM

## Cc1nsc(/C=C/C(=O)N2CCN(c3nc(OCC45CCCN4CCC5)nc4c(F)c(-c5cccc6cccc(Cl)c56)ncc34)C[C@@H]2CC#N)n1 [Compound 143]
[1]
  solubility kinetic at 2 h: 87.8 µg/mL (≈ 121 µM)
[2]
  IC50: < 10 nM
[3]
  logD: 2.39
[4]
  IC50: < 10 nM

## N#CC[C@H]1CN(c2nc(OC[C@@]34CCCN3C[C@H](F)C4)nc3c(F)c(-c4cccc5cccc(Cl)c45)ncc23)CCN1C(=O)/C=C/CN1[C@@H]2CC[C@H]1COC2 [Example 87, 2-((S)-1-((E)-4-((1R,5S)-3-oxa-8-azabicyclo[3.2.1]octan-8-yl)but-2-enoyl)-4-(7-(8-chloronaphthalen-1-yl)-8-fluoro-2-(((2R,7aS)-2-fluorohexahydro-1H-pyrrolizin-7a-yl)methoxy)pyrido[4,3-d]pyrimidin-4-yl)piperazin-2-yl)acetonitrile]
[1]
  solubility kinetic at 2 h: 69.8 µg/mL (≈ 90.7 µM)
[2]
  IC50: < 10 nM
[3]
  logD: 3.27
[4]
  IC50: < 10 nM

## Cc1cc(N)nc(-c2ncc3c(N4CCN(C(=O)/C=C/CN5CCOCC5)[C@@H](CC#N)C4)nc(OC[C@@]45CCCN4C[C@H](F)C5)nc3c2F)c1C(F)(F)F [Compound 55]
[1]
  solubility kinetic at 2 h: 128 µg/mL (≈ 169 µM)
[2]
  IC50: 10 to 100 nM
[3]
  logD: 1.53
[4]
  IC50: 10 to 100 nM

## N#CC[C@H]1CN(c2nc(OC[C@@]34CCCN3C[C@H](F)C4)nc3c(F)c(-c4cccc5ccc(F)c(F)c45)ncc23)CCN1C(=O)/C=C/CN1[C@@H]2CC[C@H]1COC2 [Compound 93, 2-((S)-1-((E)-4-((1R,5S)-3-oxa-8-azabicyclo[3.2.1]octan-8-yl)but-2-enoyl)-4-(7-(7,8-difluoronaphthalen-1-yl)-8-fluoro-2-(((2R,7aS)-2-fluorotetrahydro-1H-pyrrolizin-7a(5H)-yl)methoxy)pyrido[4,3-d]pyrimidin-4-yl)piperazin-2-yl)acetonitrile]
[1]
  solubility kinetic at 2 h: 72.4 µg/mL (≈ 94 µM)
[2]
  IC50: < 10 nM
[3]
  logD: 3.07
[4]
  IC50: < 10 nM

## Cc1cc(/C=C/C(=O)N2CCN(c3nc(OC[C@@]45CCCN4C[C@H](F)C5)nc4c(F)c(-c5cccc(Cl)c5C5CC5)ncc34)C[C@@H]2CC#N)nc(C)n1 [Compound 102, 2-((S)-4-(7-(3-chloro-2-cyclopropylphenyl)-8-fluoro-2-(((2R,7aS)-2-fluorotetrahydro-1H-pyrrolizin-7a(5H)-yl)methoxy)pyrido[4,3-d]pyrimidin-4-yl)-1-((E)-3-(2,6-dimethylpyrimidin-4-yl)acryloyl)piperazin-2-yl)acetonitrile]
[1]
  solubility kinetic at 2 h: 12 µg/mL (≈ 16.2 µM)
[2]
  IC50: < 10 nM
[3]
  logD: 3.98
[4]
  IC50: < 10 nM

## N#CC[C@H]1CN(c2nc(OC[C@@]34CCCN3C[C@H](F)C4)nc3c(F)c(-c4cccc5cccc(Cl)c45)ncc23)CCN1C(=O)/C=C/CN1CCOCC1 [Compound 48]
[1]
  solubility kinetic at 2 h: 110 µg/mL (≈ 148 µM)
[2]
  IC50: 10 to 100 nM
[3]
  logD: 2.71
[4]
  IC50: 10 to 100 nM

## N#CC[C@H]1CN(c2nc(OC[C@@]34CCCN3C[C@H](F)C4)nc3c(F)c(-c4cccc5ccc(F)c(Cl)c45)ncc23)CCN1C(=O)/C=C/CN1CC2CCC(C1)O2 [Example 78, 2-((2S)-1-((E)-4-(8-oxa-3-azabicyclo[3.2.1]octan-3-yl)but-2-enoyl)-4-(7-(8-chloro-7-fluoronaphthalen-1-yl)-8-fluoro-2-(((2R,7aS)-2-fluorotetrahydro-1H-pyrrolizin-7a(5H)-yl)methoxy)pyrido[4,3-d]pyrimidin-4-yl)piperazin-2-yl)acetonitrile]
[1]
  solubility kinetic at 2 h: 85 µg/mL (≈ 108 µM)
[2]
  IC50: < 10 nM
[3]
  logD: 3.64
[4]
  IC50: < 10 nM

## N#CC[C@H]1CN(c2nc(OC[C@@]34CCCN3C[C@H](F)C4)nc3c(F)c(-c4cccc5ccc(F)c(F)c45)ncc23)CCN1C(=O)/C=C/CN1C[C@H]2C[C@@H]1CO2 [Compound 218]
[1]
  solubility kinetic at 2 h: 56.4 µg/mL (≈ 74.6 µM)
[2]
  IC50: < 10 nM
[3]
  logD: 2.54
[4]
  IC50: < 10 nM

## CO[C@H]1CCN(C/C=C/C(=O)N2CCN(c3nc(OC[C@@]45CCCN4C[C@H](F)C5)nc4c(F)c(-c5cccc6ccc(F)c(F)c56)ncc34)C[C@@H]2CC#N)C1 [Compound 217]
[1]
  solubility kinetic at 2 h: 99.9 µg/mL (≈ 132 µM)
[2]
  IC50: < 10 nM
[3]
  logD: 2.01
[4]
  IC50: < 10 nM
